This passage reports IC50 and inhibition results from patent US5773414A, “Endothelin antagonists” (Warner-Lambert Company, priority 1997, dated 1998).

The target of one assay is T1, ETB (Rattus norvegicus, UniProt P21451).
T1 construct: thaw one aliquot of frozen rat cerebellar membranes; from tissue; host or cells: rat cerebellar membranes
T1 sequence (P21451 27-442): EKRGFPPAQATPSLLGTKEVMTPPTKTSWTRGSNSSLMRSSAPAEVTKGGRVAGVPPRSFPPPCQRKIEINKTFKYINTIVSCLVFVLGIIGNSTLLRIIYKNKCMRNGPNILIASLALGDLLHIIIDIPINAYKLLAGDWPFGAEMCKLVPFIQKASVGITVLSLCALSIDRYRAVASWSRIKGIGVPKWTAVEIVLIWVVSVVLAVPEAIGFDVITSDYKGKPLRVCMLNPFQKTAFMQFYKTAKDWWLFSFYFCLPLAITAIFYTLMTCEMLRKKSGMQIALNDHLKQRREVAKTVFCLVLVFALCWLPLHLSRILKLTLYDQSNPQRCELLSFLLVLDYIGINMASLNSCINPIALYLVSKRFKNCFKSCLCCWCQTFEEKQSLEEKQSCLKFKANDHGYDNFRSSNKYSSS
Kind of assay: Endothelin Receptor Binding Assay-B (ETB), [125I]-ET-1 binding in rat cerebellar membranes. The conditions noted are these: Table IIa; for IC50: rat cerebellar membranes, read-out: Binding Assay IC50 at Receptor Subtypes ETB. The procedure: The tissue is made up of 20 mM tris(hydroxymethyl)aminomethane hydrochloride (Trizma) buffer, 2 mM ethylenediaminetetraacetate, 100 μM phenylmethylsulfonyl fluoride.
First, thaw one aliquot of frozen rat cerebellar membranes (2 mg protein in 0.5 mL). Next, add 0.5 mL membrane aliquot to 4.5 mL cold tissue buffer, polytron at 7,500 revolutions per minute for 10 seconds. Finally, dilute tissue suspension 1/100 (0.1 mL suspension+9.9 mL tissue buffer), polytron again, and place ice.
Mix in 150 μL of tissue to each tube, vortex briefly, then tap to force all liquids to bottom (total assay volume=250 μL). Then place the tubes in a 37° C. water bath for 2 hours.
Add 2.5 mL cold water buffer (50 mM Trizma buffer) to each tube, filter, and then wash tube with additional 2.5 mL wash buffer and add to filter. Finally, wash filters with an additional 2.5 mL of cold wash buffer.
Count filters for radioactivity in gamma counter.

A further assay deals with T2, ETA (Oryctolagus cuniculus, UniProt A5A8K3).
T2 construct: The cells used were rabbit renal artery vascular smooth muscle cells; endogenous in cells; host or cells: rabbit renal artery vascular smooth muscle cells
T2 sequence (A5A8K3 21-427): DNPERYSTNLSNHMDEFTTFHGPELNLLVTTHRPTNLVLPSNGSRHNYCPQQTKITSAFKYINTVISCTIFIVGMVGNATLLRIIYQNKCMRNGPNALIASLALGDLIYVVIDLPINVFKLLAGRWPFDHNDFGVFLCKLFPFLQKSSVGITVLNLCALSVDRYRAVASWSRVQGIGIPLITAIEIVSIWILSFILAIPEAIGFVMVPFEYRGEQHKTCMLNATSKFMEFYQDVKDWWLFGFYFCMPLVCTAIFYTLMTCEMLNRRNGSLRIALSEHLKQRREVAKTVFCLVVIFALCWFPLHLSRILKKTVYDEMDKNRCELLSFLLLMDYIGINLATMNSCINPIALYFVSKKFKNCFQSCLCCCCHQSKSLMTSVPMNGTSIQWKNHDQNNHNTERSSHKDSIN
In words: Endothelin Receptor Binding Assay-A (ETA), intact cell binding of [125I]-ET-1. Details: species or system rabbit. The conditions noted are these: Table IIa; for IC50: rabbit renal artery vascular smooth muscle cells, read-out: Binding Assay IC50 at Receptor Subtypes ETA. The procedure:
The cells used were rabbit renal artery vascular smooth muscle cells grown in a 48-well dish (1 cm^2) (confluent cells).
The growth media was Dulbeccos Modified Eagles/Ham's F12 which contained 10 fetal bovine serum and antibiotics (penicillin/streptomycin/fungizone).
Second, remove the assay buffers, place the dish on ice, and add 150 μL of cold assay buffer described above to each well. […] Next, place dish in a 37° C. water bath for about 2 hours and gently agitate the dish every 15 minutes. Discard the radioactive incubation mixture in the sink and wash wells 3 times with 1 mL of cold phosphate buffered saline. Last, add […] of 0.25M sodium hydroxide, agitate for 1 hour on rotator, and then transfer the sodium hydroxide extract to gamma counting tubes and count the radioactivity.

Numbered stars: 1 amine (or outer) side, 2 acyl side, 3 side chain; on linkers, the order of the positions; unused ones are H or OH. Square brackets hold non-standard residues; d marks the D form. Peptide text beside a SMILES is read from it. * marks the point of attachment. Acetyl(1-adamantyl) = O=C(CC12CC3CC(CC(C3)C1)C2)*; dDip = N[C@@H](C(=O)O)C(c1ccccc1)c1ccccc1; d1Nal = N[C@H](Cc1cccc2ccccc12)C(=O)O; Cyclohexylacetyl = O=C(CC1CCCCC1)*; X1 = CC(C(=O)*)(c1ccccc1)c1ccccc1; CO = O=C([*:1])[*:2]; Piv = CC(C)(C)C(=O)*; Propionyl = CCC(=O)*

A word on the IC50: it is the concentration that inhibits the measured activity by half. Consider `CC[C@H](C)[C@H](NC(=O)[C@H](C)NC(=O)[C@H](CC(=O)O)NC(=O)[C@H](CC(C)C)NC(=O)[C@@H](Cc1ccccc1)NC(C)=O)C(=O)N[C@@H](Cc1c[nH]c2ccccc12)C(=O)O` [Example 73, Ac--D--Phe--Leu--Asp--Ala--Ile--Trp] (Ac-[dF]LDAIW-OH), for which the figures for the half-maximal inhibitory concentration (IC50) on ETB and on ETA were 0.33 µM and 3.5 µM, respectively.

For the compound `CC[C@H](C)[C@H](NC(=O)[C@H](CC(=O)O)NC(=O)[C@H](CC(C)C)NC(=O)[C@H](NC(C)=O)C(c1ccccc1)c1ccccc1)C(=O)N[C@H](C(=O)N[C@@H](Cc1c[nH]c2ccccc12)C(=O)O)C(C)C` [Example 86, Ac--D--Dip--Leu--Asp--Ile--Val--Trp] (Ac-[dDip]LDIVW-OH), the values for the concentration for half-maximal inhibition (IC50) at ETB and at ETA were 0.63 µM and 0.097 µM, respectively.

As for `CCC(=O)N[C@@H](C(=O)N[C@@H](CC(C)C)C(=O)N[C@@H](CC(=O)O)C(=O)N[C@H](C(=O)N[C@H](C(=O)N[C@@H](Cc1c[nH]c2ccccc12)C(=O)O)[C@@H](C)CC)[C@@H](C)CC)C(c1ccccc1)c1ccccc1` [Example 31, Et--D--Dip--Leu--Asp--Ile--Ile--Trp] (Propionyl-[dDip]LDIIW-OH), the IC50 at ETB is 2 µM; at ETA, 1.8 µM.

For `CC[C@H](C)[C@H](NC(=O)[C@H](CCC(=O)O)NC(=O)[C@H](CC(=O)O)NC(=O)[C@H](CC(C)C)NC(=O)[C@H](NC(C)=O)C(c1ccccc1)c1ccccc1)C(=O)N[C@@H](Cc1c[nH]c2ccccc12)C(=O)O` [Example 19, Ac--D--Dip--Leu--Asp--Glu--Ile--Trp] (Ac-[dDip]LDEIW-OH), the IC50 at ETB was found to be 6 µM; at ETA, 1 µM.

As to `CC[C@H](C)[C@H](NC(=O)[C@H](CC(=O)O)NC(=O)[C@H](CC(C)C)NC(=O)[C@@H](Cc1cccc2ccccc12)NC(C)=O)C(=O)N[C@H](C(=O)N[C@@H](Cc1c[nH]c2ccccc12)C(=O)O)[C@@H](C)CC` [Example 45, Ac-1-D--Nal--Leu--Asp--Ile--Ile--Trp] (Ac-[d1Nal]LDIIW-OH), the figures for the IC50 on ETB and at ETA were 0.45 µM and 0.3 µM, respectively.

What is called inhibition is how much of the control response was suppressed. As to `CC[C@H](C)[C@H](NC(=O)[C@H](Cc1ccccc1)NC(=O)[C@H](CC(=O)O)NC(=O)[C@@H](Cc1ccccc1)NC(C)=O)C(=O)N[C@@H](Cc1c[nH]c2ccccc12)C(=O)O` [Example 93, Ac--D--Phe--Asp--Phe--Ile--Trp] (Ac-[dF]DFIW-OH), the inhibition at 10 µM at ETB (@ 10 μM, read-out: Binding Assay % Inhibition at Receptor Subtypes ETB) stood at 64.7%; on ETA (@ 10 μM, read-out: Binding Assay % Inhibition at Receptor Subtypes ETA), 37.4%.

Take `CC[C@H](C)[C@H](NC(=O)[C@H](CC(=O)O)NC(=O)[C@H](CC(C)C)NC(=O)[C@H](NC(C)=O)C(c1ccccc1)c1ccccc1)C(=O)N[C@H](C(=O)N[C@@H](Cc1c[nH]c2ccccc12)C(N)=O)[C@@H](C)CC` [Example 24, Ac--D--Dip--Leu--Asp--Ile--Ile--Trp--NH2] (Ac-[dDip]LDIIW-NH2): the IC50 at ETB turned out to be 5 µM; on ETA it was 0.32 µM.

As to `CC[C@H](C)[C@H](NC(=O)[C@H](CC(=O)O)NC(=O)[C@H](CC(C)C)NC(=O)C(C)(c1ccccc1)c1ccccc1)C(=O)N[C@H](C(=O)N[C@@H](Cc1c[nH]c2ccccc12)C(=O)O)[C@@H](C)CC` [Example 28, Bppa--Leu--Asp--Ile--Ile--Trp] (X1-LDIIW-OH), the IC50 amounted to 1.7 µM on ETB and 8 µM on ETA.

Consider `CC[C@H](C)[C@H](NC(=O)[C@H](CC(=O)O)NC(=O)[C@H](CC(C)C)NC(=O)[C@H](NC(C)=O)C(c1ccccc1)c1ccccc1)C(=O)N[C@H](C(=O)N[C@@H](Cc1ccc(O)cc1)C(=O)O)[C@@H](C)CC` [Example 88, Ac--D--Dip--Leu--Asp--Ile--Ile--Tyr] (Ac-[dDip]LDIIY-OH), for which the concentration for half-maximal inhibition (IC50) at ETB was 6.3 µM; on ETA it was 3.7 µM.

On to `CC[C@H](C)[C@H](NC(=O)[C@H](CC(=O)O)NC(=O)[C@H](CCC(=O)O)NC(=O)[C@@H](Cc1ccccc1)NC(C)=O)C(=O)N[C@H](C(=O)N[C@@H](Cc1c[nH]c2ccccc12)C(=O)O)[C@@H](C)CC` [Example 9, Ac--D--Phe--Glu--Asp--Ile--Ile--Trp] (Ac-[dF]EDIIW-OH), for which the 50% inhibitory concentration (IC50) at ETB is 1.3 µM; at ETA, 0.65 µM.

Regarding `CC[C@H](C)[C@H](NC(=O)[C@H](CC(=O)O)NC(=O)[C@H](CC(C)C)NC(=O)[C@H](NC(=O)CC12CC3CC(CC(C3)C1)C2)C(c1ccccc1)c1ccccc1)C(=O)N[C@H](C(=O)N[C@@H](Cc1c[nH]c2ccccc12)C(=O)O)[C@@H](C)CC` [Example 35, Ada--D--Dip--Leu--Asp--Ile--Ile--Trp] ({Acetyl(1-adamantyl)}-[dDip]LDIIW-OH), the half-maximal inhibitory concentration (IC50) worked out at 0.5 µM on ETB and 4 µM at ETA.

As for `CC[C@H](C)[C@H](NC(=O)[C@H](CC(=O)O)NC(=O)[C@H](CC(C)C)NC(=O)[C@H](NC(=O)C(C)(C)C)C(c1ccccc1)c1ccccc1)C(=O)N[C@H](C(=O)N[C@@H](Cc1c[nH]c2ccccc12)C(=O)O)[C@@H](C)CC` [Example 38, tBu--D--Dip--Leu--Asp--Ile--Ile--Trp] (Piv-[dDip]LDIIW-OH), the values for the IC50 at ETB and on ETA were 0.5 µM and 10 µM, respectively.

Consider `CC[C@H](C)[C@H](NC(=O)[C@H](CC(=O)O)NC(=O)[C@H](CC(C)C)NC(=O)[C@@H](Cc1ccccc1)NC(C)=O)C(=O)N[C@H](C(=O)N[C@@H](Cc1ccc(O)cc1)C(=O)O)[C@@H](C)CC` [Example 89, Ac--D--Phe--Leu--Asp--Ile--Ile--Tyr] (Ac-[dF]LDIIY-OH), for which the IC50 on ETB was 0.22 µM; at ETA it was > 10 µM.

For `CC[C@H](C)[C@H](NC(=O)[C@H](CCCCN)NC(=O)[C@H](CC(C)C)NC(=O)[C@H](NC(C)=O)C(c1ccccc1)c1ccccc1)C(=O)N[C@H](C(=O)N[C@@H](Cc1c[nH]c2ccccc12)C(=O)O)[C@@H](C)CC` [Example 69, Ac--D--Dip--Leu--Lys--Ile--Ile--Trp] (Ac-[dDip]LKIIW-OH), the IC50 at ETB worked out at 0.033 µM; at ETA it was 0.48 µM.

`CC[C@H](C)[C@H](NC(=O)[C@H](CC(=O)O)NC(=O)[C@H](CC(C)C)NC(=O)[C@H](NC(=O)NC)C(c1ccccc1)c1ccccc1)C(=O)N[C@H](C(=O)N[C@@H](Cc1c[nH]c2ccccc12)C(=O)O)[C@@H](C)CC` [Example 37, Me(U) --D--Dip--Leu--Asp--Ile--Ile--Trp] ({NHMe-CO}-[dDip]LDIIW-OH): the results for the IC50 at ETB and on ETA were 1.5 µM and 1 µM, respectively.

In the case of `CC[C@H](C)[C@H](NC(=O)[C@H](CC(=O)O)NC(=O)[C@H](NC(C)=O)C(c1ccccc1)c1ccccc1)C(=O)N[C@H](C(=O)N[C@@H](Cc1c[nH]c2ccccc12)C(=O)O)[C@@H](C)CC` [Example 94, Ac--D--Dip--Asp--Ile--Ile--Trp] (Ac-[dDip]DIIW-OH; C-terminus assumed), the IC50 on ETB is 0.25 µM; on ETA it was > 1 µM.

Regarding `CC[C@H](C)[C@H](NC(=O)[C@H](CC(=O)O)NC(=O)[C@H](CC(C)C)NC(=O)[C@H](NC(=O)CC1CCCCC1)C(c1ccccc1)c1ccccc1)C(=O)N[C@H](C(=O)N[C@@H](Cc1c[nH]c2ccccc12)C(=O)O)[C@@H](C)CC` [Example 34, Cxl--D--Dip--Leu--Asp--Ile--Ile--Trp] (Cyclohexylacetyl-[dDip]LDIIW-OH), the values for the half-maximal inhibitory concentration (IC50) on ETB and at ETA were 0.2 µM and 3.4 µM, respectively.

Regarding `CC[C@H](C)[C@H](NC(=O)[C@@H]1CCCN1C(=O)[C@H](CC(N)=O)NC(=O)[C@H](CC(C)C)NC(=O)[C@@H](Cc1ccccc1)NC(C)=O)C(=O)N[C@@H](Cc1c[nH]c2ccccc12)C(=O)O` [Example 90, Ac--D--Phe--Leu--Asn--Pro--Ile--Trp] (Ac-[dF]LNPIW-OH), the values for the 50% inhibitory concentration (IC50) on ETB and on ETA were 2.8 µM and 1.98 µM, respectively.
